Data from patent publication US11596692B1 (Incyte Corporation, priority 2018, dated 2023).

What was measured:
PD-1/PD-L1 = PD-1/PD-L1 (Homo sapiens (Human), UniProt Q9NZQ7); experiment: PD-1/PD-L1 binding assay (Alphascreen)
Protocol: Binding assays were conducted in a low volume white 384-well polystyrene plate in a final volume of 20 μL. Compounds to be analyzed were first serially diluted in DMSO and added to the plate wells before the addition of other reaction components. The final concentration of DMSO in the assay was 1%. The assay was carried out at 25° C. in the PBS buffer (pH 7.4) with 0.05% Tween-20 and 0.1% BSA. Recombinant human PD-L1 protein (19-238) with a His-tag at the C-terminus was purchased from AcroBiosystems (PD1-H5229). Recombinant human PD-1 protein (25-167) with Fc tag at the C-terminus was also from AcroBiosystems (PD1-H5257). PD-L1 and PD-1 proteins were diluted in the assay buffer (final concentration—0.67 and 0.20 nM respectively) and 10 μL was added to the plate well. Plates were centrifuged and proteins were preincubated with compounds for 40 minutes. The incubation was followed by the addition of 10 μL of assay buffer supplemented with Alphascreen Ni chelate donor beads (PerkinElmer—AS101D) and Protein A Acceptor beads (PerkinElmer—6760137) at final concentration 2.5 μg/mL under reduced light. After plate sealing, the plate was incubated in the dark at room temperature for 120 minutes before reading on a PHERAstar FS plate reader (BMG Labtech). IC50 determination was performed by fitting the curve of percent control activity versus the log of the compound concentration using the GraphPad Prism 5.0 software.

PD-L1 [1] = target: T1, PD-L1 (Homo sapiens (Human), UniProt Q9NZQ7); experiment: Indirect PD-L1 internalization assay using MDA-MB231 cells; format: cell-based; conditions: 16 hrs
Protocol: For the indirect analysis, cell surface PD-L1 was detected with fluorescently labeled anti-PD-L1 (CD274) antibodies. CHO-PD-L1 cells were seeded at 2×10^5 cells per well of a 6-well tissue culture plate in 2 ml of F-12 medium supplemented with 10% FBS, 200 μg/ml Hydromycin and 250 μg/ml Geneticin and allowed to attach for 24 hours. After 24 hours, test compounds were added to a final concentration of 1 uM from DMSO stocks, and an equal volume of DMSO was added to control wells. Cells were incubated in the presence of a compound for 16 hours at 37° C., 5% CO2. Prior to analysis, the cells were washed twice with 1 mL of Ca, Mg free PBS and detached with 1 mL of lift buffer (10 mM Tris, 140 mM NaCl, 1 mM EDTA). The collected cells were stained with PE-conjugated mouse anti-human CD274 antibody according to manufacturer instructions: BD Pharmigen #557924 Clone MIH1 (20 μL of Ab per 100 uL of BSA based staining buffer) or eBioscience #12-5983 Clone MIH1 (2 μL per 100 ul of BSA based staining buffer). Cells were incubated at room temperature for 20 minutes, protected from light, washed twice with Ca, Mg free PBS and resuspended in 400 μL of PBS. Antibody binding was detected by flow cytometry using an Accuri C6 instrument. Isotype control antibody-stained cells were used as a negative control. To test that lack of PD-L1 cell surface staining was not due to inhibition of detection antibody binding by the test article, an acid-wash procedure was used. After 16 hours of incubation in the presence of a compound or anti-PD-L1 antibody, the remaining, non-internalized a compound or antibody was stripped from the cell surface using freshly prepared, ice-cold acid stripping buffer (DMEM/0.2% BSA, pH 3.5). Cells were washed in this manner three times for 5 minutes each on a shaking platform. The stripped cells were then washed with ice-cold PBS three times for 5 minutes each with gentle shaking, harvested with lift buffer and stained with PE-mouse anti human CD274 antibodies as described.
For the indirect method of assessing PD-L1 internalization using the MDA-MB231 breast cancer cell line, the procedure for the assays was the same as described for the CHO-PD-L1 cells with the following changes. MDA-MB231 were seeded at 2×10^5 cells per well of a 6-well tissue culture plate in 2 ml of RPMI1640 medium supplemented with 10% FBS. After compound treatment for 16 hrs, the cells were treated with the stripping buffer (DMEM/0.2% BSA, pH 3.5) prior to staining with the anti-CD274 antibodies as described.

PD-L1 [2] = target: T1, PD-L1; experiment: Indirect whole blood PD-L1 internalization assay; format: cell-based; conditions: interferon γ, 18 hours, CD14+ gated
Protocol: To determine PD-L1 internalization in human whole blood, normal human blood (Biological Specialty Corp, Colmar. Pa.) was incubated in the presence or absence of a concentration range of test compounds and 1 ng/ml human interferon γ (R&D Systems Inc. Minn. Minn.) in a 96 well round bottom plate (Corning, Corning, N.Y.) for 18 hours at 37° C. Blood was then transferred into 96 well “2 ml Assay Block” (Corning, Corning N.Y.) and stained with PD-L1 (MIH1, eBioscience; or BD Biosciences San Jose, Calif.), CD14 (Life Technologies, Carlsbad, Calif.) for 30 minutes in the dark at room temperature. Whole Blood/red cells were lysed/fixed (lysis buffer BD Biosciences) for 5 minutes at 37° C. in dark and then centrifuged at 1600 RPM for 5 minutes and cells were transferred into 96 well round bottom plates (Corning). Cells were gated on CD14+ (BD Biosciences) and PD-L1 expression determined by mean fluorescence intensity (MFI) (BD LSRFortessa™ X-20). IC50 determination was performed by fitting the curve of compound percent inhibition versus the log of the compound concentration using the GraphPad Prism 7.0 software.

[3] = tested on: IFNβ production in CD11b+ monocytes; experiment: IFN-beta induction in CD11b+ monocytes from lung cancer pleural effusions; format: cell-based, human; conditions: Homo sapiens; CD11b+ monocyte cultures, lung cancer pleural effusion, 20 hours; read-out: EC50 for IFNβ induction, Cancer patient
Protocol: (§1) CD11b^+ cells were isolated from healthy PBMCs as well as Pleural effusion samples using Miltenyi isolation kit according to manufacturer's protocol. Cells were seeded in 96 well plates at the density of 300,000 cells/wells, and then treated with various concentrations of compounds for 20 hours. After 20 hours, IFN-beta secretion levels were evaluated in the culture supernatants by MSD singleplex assay. EC50 values were calculated using Prism software.
(§2) Different naked STING agonisst and PD-L1-targeted small molecule-STING agonist conjugates were added to CD11b^+ monocytes cultures isolated from healthy donor blood or lung cancer patients' pleural effusions. Culture supernatants were collected 20 hours later and IFNβ production were determined using MSD singleplex assay.

[4] = tested on: IFNβ production in CD11b+ monocytes; experiment: IFN-beta induction in CD11b+ monocytes from healthy donor PBMC; format: cell-based, human; conditions: Homo sapiens, CD11b+ monocyte cultures, 20 hours, mean ± SEM
Protocol: as §1, §2

IRF3 = IRF3 activation assay in THP-1 Dual cells; format: cell-based; conditions: Homo sapiens, THP-1, Table 4C; read-out: THP1 IRF3 EC50
Summary of the method: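 THP-1 Dual cells (100,000/well) were treated with serially diluted compound for 24 h at 37° C, 5% CO2. IRF3 reporter activity in supernatant was read with QUANTI-Blue as absorbance at 620-655 nm after 2 h, with untreated cells as negative control. EC50 came from fitting percent control activity against log concentration.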

T1 sequence (Q9NZQ7 19-290): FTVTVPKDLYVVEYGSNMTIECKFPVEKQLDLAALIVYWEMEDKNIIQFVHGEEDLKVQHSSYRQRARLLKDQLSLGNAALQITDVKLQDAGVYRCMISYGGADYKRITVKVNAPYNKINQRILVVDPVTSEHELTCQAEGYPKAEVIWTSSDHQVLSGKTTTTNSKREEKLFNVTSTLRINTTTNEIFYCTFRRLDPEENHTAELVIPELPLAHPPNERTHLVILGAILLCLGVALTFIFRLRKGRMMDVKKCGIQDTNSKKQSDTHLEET
Sequence of PD-1/PD-L1 (Q9NZQ7 19-238): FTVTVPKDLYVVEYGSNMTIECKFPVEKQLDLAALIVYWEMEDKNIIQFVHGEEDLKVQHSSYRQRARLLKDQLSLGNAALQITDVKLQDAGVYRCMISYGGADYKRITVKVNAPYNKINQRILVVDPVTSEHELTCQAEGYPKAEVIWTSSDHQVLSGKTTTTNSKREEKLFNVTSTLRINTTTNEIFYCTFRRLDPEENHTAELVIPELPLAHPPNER

Compound	IC50 (PD-1/PD-L1)	IC50 (PD-L1 [1])	IC50 (PD-L1 [2])	EC50 [3]	EC50 (IRF3)	EC50 [4]
Cc1c(-c2nc3cc(CN4CC[C@@H](C(=O)O)C4)cc(C#N)c3o2)cccc1-c1cccc(-c2nc3c(s2)CNCC3)c1C [Example P12]	0.1 to 1 nM	10 to 100 nM	100 to 1000 nM	–	–	–
Cc1c(-c2nc3cc(CN4CC[C@@H](C(=O)O)C4)cc(C#N)c3o2)cccc1-c1cccc(-n2cc3c(n2)CN(C(C)C)CC3)c1Cl [Example P19]	0.1 to 1 nM	> 500 nM	100 to 1000 nM	–	–	–
Cc1c(Nc2nccc3cc(CN4CC[C@@H](O)C4)cnc23)cccc1-c1cccc(-c2nc3c(Cl)cc(CN4CC[C@@H](C(=O)O)C4)cn3n2)c1C [Example P17]	0.1 to 1 nM	100 to 500 nM	100 to 1000 nM	–	–	–
Cc1c(NC(=O)c2nc3c(n2C)CCN(C[C@@H](C)O)C3)cccc1-c1cccc(NC(=O)c2nc3c(n2C)CCN(C)C3)c1Cl [Example P10]	0.1 to 1 nM	< 10 nM	< 100 nM	–	–	–
Cc1c(Nc2nccc3cc(CN4CC[C@@H](O)C4)cnc23)cccc1-c1cccc(-c2nc3cc(CNCC(C)(C)C(=O)O)cc(C#N)c3o2)c1C [Example P21]	0.1 to 1 nM	10 to 100 nM	100 to 1000 nM	–	–	–
Cc1c(-c2nc3cc(CN4CC[C@@](C)(C(=O)O)C4)cc(C#N)c3o2)cccc1-c1cccc(Nc2nccc3cc(CN4CC[C@H](O)C4)cnc23)c1Cl [Example P16]	0.1 to 1 nM	10 to 100 nM	100 to 1000 nM	–	–	–

Now from value to molecule, other results behind:

IC50 (PD-1/PD-L1)	IC50 (PD-L1 [1])	IC50 (PD-L1 [2])	EC50 [3]	EC50 (IRF3)	Compound	EC50 [4]
0.1 to 1 nM	10 to 100 nM	1000 to 5000 nM	–	–	Cc1c(-c2nc3c(Cl)cc(CN4CC[C@@H](O)C4)cn3n2)cccc1-c1cccc(-c2nc3cc(CN4CC[C@@H](C(=O)O)C4)cc(C#N)c3o2)c1C [Example P25]	–
–	–	–	56 nM	≤ 50 nM	CCn1nc(C)cc1C(=O)Nc1nc2cc(C(N)=O)cc(OCCCNC(=O)OCC(=O)O)c2n1C/C=C/Cn1c2nc(-c3cc(C)nn3CC)ncc2c2cc(C(N)=O)cc(OCCCOC)c21 [Example S45, (E)-2-(((3-((5-carbamoyl-1-(4-(6-carbamoyl-2-(1-ethyl-3-methyl-1H-pyrazol-5-yl)-8-(3-methoxypropoxy)-9H-pyrimido[4,5-b]indol-9-yl)but-2-en-1-yl)-2-(1-ethyl-3-methyl-1H-pyrazole-5-carboxamido)-1H-benzo[d]imidazol-7-yl)oxy)propyl)carbamoyl)oxy)acetic acid]	119 ± 22 nM
0.1 to 1 nM	10 to 100 nM	100 to 1000 nM	–	–	Cc1c(-c2nc3c(C#N)cc(CN4CC[C@@H](O)C4)cn3n2)cccc1-c1cccc(-c2nc3cc(CN4CC[C@@H](C(=O)O)C4)cc(C#N)c3o2)c1C [Example P26]	–
0.1 to 1 nM	10 to 100 nM	100 to 1000 nM	–	–	Cc1c(Nc2nccc3cc(CN4CC[C@H](C(=O)O)C4)cnc23)cccc1-c1nccc(Nc2nccc3cc(CN4CC[C@@H](O)C4)cnc23)c1C [Example P23]	–
0.1 to 1 nM	10 to 100 nM	100 to 1000 nM	–	–	Cc1c(Nc2nccc3cc(CN4CC[C@@H](O)C4)cnc23)cccc1-c1cccc(-c2nc3cc(CN4CC(C(=O)O)C4)cc(Cl)c3o2)c1C [Example P24]	–
–	–	–	38 nM	≤ 50 nM	CCn1nc(C)cc1C(=O)Nc1nc2cc(C(N)=O)cc(OCCCOC(=O)NCCC(=O)O)c2n1C/C=C/Cn1c2nc(-c3cc(C)nn3CC)ncc2c2cc(C(N)=O)cc(OCCCOC)c21 [Example S48, (E)-3-(((3-((5-carbamoyl-1-(4-(6-carbamoyl-2-(1-ethyl-3-methyl-1H-pyrazol-5-yl)-8-(3-methoxypropoxy)-9H-pyrimido[4,5-b]indol-9-yl)but-2-en-1-yl)-2-(1-ethyl-3-methyl-1H-pyrazole-5-carboxamido)-1H-benzo[d]imidazol-7-yl)oxy)propoxy)carbonyl)amino)propanoic acid]	64 ± 12 nM
